We go through six molecules from US20200262877A1, “ION CHANNEL-BINDING PEPTIDES AND METHODS OF USE THEREOF” (priority 2017, published 2020).

One data set has as its system panel of 20 ion channels. Format: cell-based. To be noted: 0.2 or 20 μM, FIG. 2; for Activity on potassium channels: potassium channels of the panel. The protocol:
This example describes a method for assaying ion channel activity in cells.
Peptides were screened in duplicate at final concentrations of 20 μM and 200 nM, as determined by amino acid analysis, and diluted into HEPES buffered physiological saline (HBPS). HEK293 or CHO cells from the American Type Culture Collection (ATCC) were transfected with the appropriate ion channel before use. HEK293 cells were grown in Dulbecco's Modified Eagle Medium/Nutrient Mixture F-12, and CHO cells were cultured in Ham's F-12 media. All cultures were supplemented with 10% fetal bovine serum, 100 U/ml penicillin G, 100 μg/ml streptomycin sulfate, and the appropriate selection antibiotics. Prior to use, cells were washed twice with Hank's Balanced Salt Solution, and treated with Accutase cell detachment solution (Sigma-Aldrich). Cells were then washed. Peptides and controls were incubated with cells for at least five minutes.
Percent inhibition was defined as: (1-(Ipeptide/Icontrol))×100%).
Percent values were calculated using the following formula: % activation=(IPeptide/Icontrol)×100%, where IPeptide is the current produced by co-application a peptide with agonist, and Icontrol refers to the current produced by stimulation in control. Control used for each ion channel is the reference compound matched to a particular channel, as illustrated in TABLE 10 below.

In data set [1] the target is T1, hERG (Homo sapiens, UniProt Q12809). The experiment in a line: in vitro. The note with it: for activity at 20 µM: human; for Activity against / inhibition of hERG (Kv11.1): 0.2 or 20 μM, FIG. 2. Summed up:
(§1)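 Transfected HEK293 or CHO cells were exposed for at least 5 min to peptides at 200 nM and 20 μM final, tested in duplicate, in HEPES-buffered physiological saline. Activation was taken as peptide-plus-agonist current over control current ×100, and inhibition as 1 minus that ratio ×100. Each channel's control was its own reference compound.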
(In general: Block of hERG is tested as a sign of cardiac risk.)

The next data set concerns the target T2, Kv1.2 (Homo sapiens, UniProt P16389).
T2 construct: host or cells: HEK293 or CHO
The experiment in a line: cell-based. Format: cell-based. To be noted: Kv1.2, percentage of control, 100% = no change, read-out: Ion channel activity (ion channel inhibition); for activity at 20 µM: peptide at 20 μM. In outline:
as §1

In data set [2] the target is T1, hERG. The note with it: cited from earlier work.
The subject of data set [3] is calcium channels (ryanodine receptors). To be noted: prior reports; cited from earlier work.
Another data set concerns the target T3, Kv1.3 (Homo sapiens, UniProt P22001).
T3 construct: host or cells: HEK293 or CHO
The experiment in a line: cell-based. The format is cell-based. The note with it: Kv1.3; peptide at 20 μM; percentage of control, 100% = no change; read-out: Ion channel activity (ion channel inhibition). Summed up:
as §1

Another data set addresses T4, Nav1.7 (Homo sapiens, UniProt Q15858).
T4 construct: host or cells: HEK293 or CHO
The experiment in a line: cell-based. The format is cell-based. The note with it: 0.2 or 20 μM; FIG. 2.

The target in data set [4] is T5, Nav1.5 cardiac sodium channel (human SCN5A gene) (Homo sapiens, UniProt Q14524). To be noted: read-out: IC50 Nav1.5 ion channel inhibition, TP2; human Nav1.5 in CHO cells; TP2 (inactivated state inhibition).
The target of data set [5] is T5, Nav1.5 cardiac sodium channel (human SCN5A gene). The experiment in a line: cell-based.
Data set [6] addresses Kv1.3 potassium channel (human KCNA3 gene) (Homo sapiens, UniProt P22001). The data set can be described thus: cell-based. The arrangement: host or cells: CHO. To be noted: human Kv1.3 in CHO cells.
Data set [7] deals with Kv1.5 potassium channel (human KCNA5 gene) (Homo sapiens, UniProt P22460). The experiment in a line: cell-based. The arrangement: host or cells: CHO. The note with it: human Kv1.5 in CHO cells.
Kv1.5 potassium channel (human KCNA5 gene), sequence (P22460 whole entry): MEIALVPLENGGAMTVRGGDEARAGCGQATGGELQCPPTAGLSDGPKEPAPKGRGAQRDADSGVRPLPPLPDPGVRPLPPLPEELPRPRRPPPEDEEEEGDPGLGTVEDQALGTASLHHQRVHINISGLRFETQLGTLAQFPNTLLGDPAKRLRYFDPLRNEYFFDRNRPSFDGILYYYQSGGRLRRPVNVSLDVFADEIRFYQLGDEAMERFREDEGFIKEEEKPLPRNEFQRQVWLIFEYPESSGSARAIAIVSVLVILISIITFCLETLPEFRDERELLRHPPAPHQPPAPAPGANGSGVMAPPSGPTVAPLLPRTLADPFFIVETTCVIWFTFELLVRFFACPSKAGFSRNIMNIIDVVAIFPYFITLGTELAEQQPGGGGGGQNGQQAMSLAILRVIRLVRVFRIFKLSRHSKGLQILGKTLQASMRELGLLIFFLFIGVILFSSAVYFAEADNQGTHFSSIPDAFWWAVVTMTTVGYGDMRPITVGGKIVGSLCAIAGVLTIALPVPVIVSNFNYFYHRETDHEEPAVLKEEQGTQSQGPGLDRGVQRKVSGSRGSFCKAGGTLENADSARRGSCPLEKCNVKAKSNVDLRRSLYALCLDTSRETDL
The target in data set [8] is Nav1.3 sodium channel (human SCN3A gene) (Homo sapiens, UniProt Q9NY46). The data set can be described thus: cell-based. The arrangement: host or cells: CHO. The note with it: human Nav1.3 in CHO cells.
For data set [9], the target named is Nav1.4 sodium channel (human SCN4A gene) (Homo sapiens, UniProt P35499). The experiment in a line: cell-based. Set-up: host or cells: CHO. To be noted: human Nav1.4 in CHO cells.
Nav1.4 sodium channel (human SCN4A gene), sequence (P35499 whole entry): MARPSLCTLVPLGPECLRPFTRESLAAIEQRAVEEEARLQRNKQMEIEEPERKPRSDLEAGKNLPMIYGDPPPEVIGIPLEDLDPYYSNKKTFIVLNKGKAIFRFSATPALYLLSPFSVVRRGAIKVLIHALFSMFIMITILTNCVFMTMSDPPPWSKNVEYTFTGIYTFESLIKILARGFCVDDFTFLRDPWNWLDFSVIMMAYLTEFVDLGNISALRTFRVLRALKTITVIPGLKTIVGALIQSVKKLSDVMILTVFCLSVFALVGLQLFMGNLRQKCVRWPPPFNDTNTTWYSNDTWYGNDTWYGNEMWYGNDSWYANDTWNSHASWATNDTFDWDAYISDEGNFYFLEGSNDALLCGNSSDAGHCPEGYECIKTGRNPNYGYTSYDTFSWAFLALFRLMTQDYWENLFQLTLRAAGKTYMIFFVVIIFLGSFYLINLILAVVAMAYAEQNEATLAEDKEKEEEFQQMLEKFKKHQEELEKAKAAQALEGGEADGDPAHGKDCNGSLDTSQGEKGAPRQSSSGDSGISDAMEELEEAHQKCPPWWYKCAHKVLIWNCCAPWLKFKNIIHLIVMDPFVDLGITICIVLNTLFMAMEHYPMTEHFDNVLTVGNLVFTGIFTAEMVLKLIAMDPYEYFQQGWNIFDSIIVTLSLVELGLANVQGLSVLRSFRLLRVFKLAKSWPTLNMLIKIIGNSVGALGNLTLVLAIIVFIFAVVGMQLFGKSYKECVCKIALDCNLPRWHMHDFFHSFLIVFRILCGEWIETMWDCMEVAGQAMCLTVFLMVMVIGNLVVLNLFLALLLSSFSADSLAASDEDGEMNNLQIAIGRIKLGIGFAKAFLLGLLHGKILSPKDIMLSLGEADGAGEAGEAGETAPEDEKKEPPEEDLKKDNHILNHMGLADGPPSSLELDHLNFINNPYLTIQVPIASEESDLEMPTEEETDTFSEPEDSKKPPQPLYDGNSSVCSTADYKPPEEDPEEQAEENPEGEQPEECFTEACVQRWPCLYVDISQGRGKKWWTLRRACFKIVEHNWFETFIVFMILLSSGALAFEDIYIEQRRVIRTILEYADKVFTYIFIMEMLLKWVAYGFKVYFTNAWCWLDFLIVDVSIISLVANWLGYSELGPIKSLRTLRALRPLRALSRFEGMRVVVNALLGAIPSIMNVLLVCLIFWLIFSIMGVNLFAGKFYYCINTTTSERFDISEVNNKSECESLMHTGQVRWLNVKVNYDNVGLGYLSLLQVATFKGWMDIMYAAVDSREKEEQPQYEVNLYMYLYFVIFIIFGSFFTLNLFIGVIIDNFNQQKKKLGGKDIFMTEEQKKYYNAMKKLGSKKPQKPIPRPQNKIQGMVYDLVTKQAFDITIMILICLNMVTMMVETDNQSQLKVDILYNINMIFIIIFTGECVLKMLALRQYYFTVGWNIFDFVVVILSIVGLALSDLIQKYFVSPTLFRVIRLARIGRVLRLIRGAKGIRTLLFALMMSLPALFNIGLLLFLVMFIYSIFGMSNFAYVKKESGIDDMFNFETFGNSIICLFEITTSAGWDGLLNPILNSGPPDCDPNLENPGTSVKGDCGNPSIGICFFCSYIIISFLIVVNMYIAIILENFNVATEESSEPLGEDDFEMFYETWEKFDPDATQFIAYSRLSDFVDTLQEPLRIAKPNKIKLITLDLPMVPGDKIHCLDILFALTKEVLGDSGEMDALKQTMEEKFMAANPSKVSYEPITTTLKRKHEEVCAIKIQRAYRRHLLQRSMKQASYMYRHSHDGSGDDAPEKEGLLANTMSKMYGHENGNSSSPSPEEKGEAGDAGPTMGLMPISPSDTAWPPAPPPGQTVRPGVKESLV
In data set [10] the target is Nav1.7 sodium channel (human SCN9A gene) (Homo sapiens, UniProt Q15858). The experiment in a line: cell-based. The arrangement: expressed in transfected cells; host or cells: CHO cells. To be noted: human Nav1.7 in CHO cells.
Where [11] appears, read: test pulse TP1, read-out: IC50 Kv1.3 ion channel inhibition, TP1.
Setting [12] is: test pulse TP6, read-out: IC50 Kv1.3 ion channel inhibition, TP6.
The mark [13] stands for this setting: test pulse TP1, read-out: IC50 Kv1.5 ion channel inhibition, TP1.
Setting [14] is: test pulse TP6, read-out: IC50 Kv1.5 ion channel inhibition, TP6.
Setting [15] is: TP1 (tonic inhibition), read-out: IC50 Nav1.3 ion channel inhibition, TP1.
Setting [16] is: TP2 (inactivated state inhibition), read-out: IC50 Nav1.3 ion channel inhibition, TP2.
The mark [17] stands for this setting: TP1 (tonic inhibition), read-out: IC50 Nav1.4 ion channel inhibition, TP1.
Where [18] appears, read: TP2 (inactivated state inhibition), read-out: IC50 Nav1.4 ion channel inhibition, TP2.
Setting [19] is: TP1 (tonic inhibition), read-out: IC50 Nav1.7 ion channel inhibition, TP1.
[20] abbreviates: TP2 (inactivated state inhibition), read-out: IC50 Nav1.7 ion channel inhibition, TP2.

Like-named read-outs stand apart in the source and are kept apart here. Where a SMILES comes first, the peptide text is derived from it. Bridges are numbered along the chain shown (N, C = ends). Where no end group is shown, it is not given here.

T1 sequence (Q12809 whole entry): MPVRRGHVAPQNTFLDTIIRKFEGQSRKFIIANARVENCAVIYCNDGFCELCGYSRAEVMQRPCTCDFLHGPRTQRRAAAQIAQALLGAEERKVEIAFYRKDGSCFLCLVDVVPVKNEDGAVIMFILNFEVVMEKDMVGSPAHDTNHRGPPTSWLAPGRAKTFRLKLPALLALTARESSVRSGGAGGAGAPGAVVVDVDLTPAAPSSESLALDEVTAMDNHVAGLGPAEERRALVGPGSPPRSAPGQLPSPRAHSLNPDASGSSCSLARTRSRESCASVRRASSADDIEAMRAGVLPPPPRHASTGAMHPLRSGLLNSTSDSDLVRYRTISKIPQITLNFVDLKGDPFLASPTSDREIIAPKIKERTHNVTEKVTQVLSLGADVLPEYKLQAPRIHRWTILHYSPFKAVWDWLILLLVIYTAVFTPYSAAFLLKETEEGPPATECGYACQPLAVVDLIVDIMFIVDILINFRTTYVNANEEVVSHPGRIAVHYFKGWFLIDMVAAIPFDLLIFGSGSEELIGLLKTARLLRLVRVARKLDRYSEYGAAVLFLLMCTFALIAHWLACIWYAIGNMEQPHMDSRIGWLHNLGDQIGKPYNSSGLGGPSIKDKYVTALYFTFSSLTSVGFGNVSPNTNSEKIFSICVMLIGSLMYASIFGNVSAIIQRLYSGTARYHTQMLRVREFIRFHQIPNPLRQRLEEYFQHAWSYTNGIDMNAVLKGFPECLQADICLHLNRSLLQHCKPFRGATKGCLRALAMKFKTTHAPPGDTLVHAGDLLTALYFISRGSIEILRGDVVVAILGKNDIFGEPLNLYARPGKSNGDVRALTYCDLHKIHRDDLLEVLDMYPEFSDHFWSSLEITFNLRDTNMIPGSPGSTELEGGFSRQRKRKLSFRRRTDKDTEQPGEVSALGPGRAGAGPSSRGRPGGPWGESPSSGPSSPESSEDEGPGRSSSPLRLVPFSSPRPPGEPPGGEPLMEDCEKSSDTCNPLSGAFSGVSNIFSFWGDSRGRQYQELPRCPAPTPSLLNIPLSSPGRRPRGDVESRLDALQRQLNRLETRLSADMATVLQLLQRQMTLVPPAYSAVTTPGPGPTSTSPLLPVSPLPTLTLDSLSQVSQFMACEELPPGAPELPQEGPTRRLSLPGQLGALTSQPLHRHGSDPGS
Kv1.3 potassium channel (human KCNA3 gene), sequence (P22001 whole entry): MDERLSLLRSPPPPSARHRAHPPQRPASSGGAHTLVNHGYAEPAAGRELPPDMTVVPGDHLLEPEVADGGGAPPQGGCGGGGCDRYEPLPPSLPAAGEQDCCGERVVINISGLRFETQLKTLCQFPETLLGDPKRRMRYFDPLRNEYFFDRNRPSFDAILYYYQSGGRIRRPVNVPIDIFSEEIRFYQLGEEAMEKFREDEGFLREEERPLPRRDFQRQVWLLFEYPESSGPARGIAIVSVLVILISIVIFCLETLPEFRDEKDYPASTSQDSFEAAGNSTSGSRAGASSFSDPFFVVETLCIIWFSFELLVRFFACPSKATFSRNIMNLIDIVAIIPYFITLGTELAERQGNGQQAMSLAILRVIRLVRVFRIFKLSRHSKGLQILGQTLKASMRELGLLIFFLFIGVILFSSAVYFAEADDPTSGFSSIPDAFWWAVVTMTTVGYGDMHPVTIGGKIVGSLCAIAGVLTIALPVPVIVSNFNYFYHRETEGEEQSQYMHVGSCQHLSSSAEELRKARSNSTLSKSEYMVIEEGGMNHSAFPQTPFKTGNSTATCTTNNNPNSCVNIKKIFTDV
T2 sequence (P16389 whole entry): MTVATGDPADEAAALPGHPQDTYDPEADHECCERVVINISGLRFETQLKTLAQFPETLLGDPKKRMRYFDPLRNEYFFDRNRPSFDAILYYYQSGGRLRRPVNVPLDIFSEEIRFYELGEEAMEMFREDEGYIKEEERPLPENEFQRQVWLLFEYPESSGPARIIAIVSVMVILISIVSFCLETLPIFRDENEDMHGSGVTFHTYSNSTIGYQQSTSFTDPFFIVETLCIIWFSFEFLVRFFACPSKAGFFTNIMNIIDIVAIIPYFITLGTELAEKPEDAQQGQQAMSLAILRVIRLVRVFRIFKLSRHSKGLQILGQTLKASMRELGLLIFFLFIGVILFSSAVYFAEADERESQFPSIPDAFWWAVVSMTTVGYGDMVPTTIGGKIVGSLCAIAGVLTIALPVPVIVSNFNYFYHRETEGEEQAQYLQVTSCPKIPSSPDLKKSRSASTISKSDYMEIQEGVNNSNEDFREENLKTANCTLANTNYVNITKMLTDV
T3 sequence (P22001 whole entry): as the sequence (P22001 whole entry) above

Regarding “GSDRDSCIDKSRCSKYGYYQECQDCCKKAGHNGGTCMFFKCKCA (disulfide 7-25, 13-36, 22-41, 26-43) [SEQ ID NO: 14]”, the “Activity on potassium channels” value in the data set on panel of 20 ion channels is “showed activity against additional potassium channels”. Further, the activity at 20 µM at hERG [1] and at Kv1.2 was below 50% in each case. For the same molecule, the activity at 0.2 µM at Kv1.2 (peptide at 0.2 μM) is below 80%. Also, on hERG [2], the “hERG inhibition or binding, previously reported” value is “previously reported to inhibit hERG channels”.

“GSSEKDCIKHLQRCRENKDCCSKKCSRRGTNPEKRCR [SEQ ID NO: 3]”: the “Activity against additional potassium channels or serotonin receptors (e.g., 5-HT3a)” value in the data set on panel of 20 ion channels is “showed activity against additional potassium channels or serotonin receptors (e.g., 5-HT3a)”. Further, the “Inhibition of calcium channels (ryanodine receptors), reported” value in [3] is given as “reported to inhibit calcium channels (ryanodine receptors)”.

For “GSGDCLPHLKRCKENNDCCSKKCKRRGANPEKRCR [SEQ ID NO: 11]”, the “Activity against additional potassium channels or serotonin receptors (e.g., 5-HT3a)” value in the data set on panel of 20 ion channels is listed as “showed activity against additional potassium channels or serotonin receptors (e.g., 5-HT3a)”. In [3], the “Inhibition of calcium channels (ryanodine receptors), reported” value is “reported to inhibit calcium channels (ryanodine receptors)”.

In the case of `CC[C@H](C)[C@H](NC(=O)[C@H](CC(=O)O)NC(=O)[C@@H](NC(=O)[C@@H]1CCCN1C(=O)[C@H](CCCNC(=N)N)NC(=O)[C@H](CO)NC(=O)CN)[C@@H](C)O)C(=O)N[C@@H](CCCCN)C(=O)N[C@H]1CSSC[C@@H]2NC(=O)[C@H](CCCNC(=N)N)NC(=O)CNC(=O)[C@H](CC(N)=O)NC(=O)[C@H]([C@@H](C)O)NC(=O)[C@H](CCCCN)NC(=O)CNC(=O)[C@H](Cc3ccccc3)NC(=O)[C@H](CCCNC(=N)N)NC(=O)[C@H](CO)NC(=O)[C@H](CCCCN)NC(=O)[C@@H]3CSSC[C@@H](C(=O)N[C@@H](Cc4ccccc4)C(=O)O)NC(=O)[C@H](CC(=O)O)NC(=O)[C@H](CSSC[C@H](NC(=O)[C@H](CCC(N)=O)NC(=O)[C@H](Cc4ccc(O)cc4)NC(=O)[C@H](CO)NC(=O)[C@H](C)NC(=O)[C@H](CO)NC1=O)C(=O)N[C@@H](Cc1ccccc1)C(=O)N1CCC[C@H]1C(=O)N[C@@H](C(C)C)C(=O)N3)NC(=O)[C@H](CC(C)C)NC(=O)CNC(=O)[C@H](CC(N)=O)NC(=O)[C@H](C(C)C)NC2=O` [SEQ ID NO: 17] (H-GSRPTDIKCSASYQCFPVCKSRFGKTNGRCVNGLCDCF-OH; disulfide 9-30, 15-35, 19-37), the “Activity against / inhibition of hERG (Kv11.1)” value at hERG [1] is “confirmed hERG inhibition”. Besides, the activity at 20 µM at hERG [1], at Kv1.2 and at Kv1.3 was below 50% in each case. In addition, the “hERG inhibition or binding, previously reported” value on hERG [2] is reported as “previously been demonstrated to bind to hERG”.

`CC[C@H](C)[C@@H]1NC(=O)[C@@H]2CSSC[C@H](NC(=O)[C@H](CCCCN)NC(=O)[C@@H](NC(=O)[C@H](CC(N)=O)NC(=O)[C@@H](NC(=O)[C@@H]3CCCN3C(=O)[C@@H](NC(=O)CNC(=O)[C@H](CO)NC(=O)CN)C(C)C)[C@@H](C)CC)C(C)C)C(=O)N[C@@H](CCCNC(=N)N)C(=O)NCC(=O)N[C@@H](CO)C(=O)N[C@@H](CCCNC(=N)N)C(=O)N[C@@H](CC(=O)O)C(=O)N[C@H]3CSSC[C@H](NC(=O)[C@H](CCCCN)NC(=O)[C@H](CO)NC(=O)[C@H](CC(N)=O)NC1=O)C(=O)N[C@@H](Cc1c[nH]cn1)C(=O)N[C@H](C(=O)N[C@H](C(=O)N1CCC[C@H]1C(=O)O)[C@@H](C)O)CSSC[C@H](NC(=O)[C@@H]1CCCN1C(=O)[C@H](CC(=O)O)NC(=O)[C@H](CC(C)C)NC3=O)C(=O)N[C@@H](CCCCN)C(=O)N[C@@H](CCCCN)C(=O)N[C@@H](C)C(=O)NCC(=O)N[C@@H](CCSC)C(=O)N[C@@H](CCCNC(=N)N)C(=O)N[C@@H](Cc1ccccc1)C(=O)NCC(=O)N[C@@H](CCCCN)C(=O)N2` [SEQ ID NO: 5] (H-GSGVPINVKCRGSRDCLDPCKKAGMRFGKCINSKCHCTP-OH; disulfide 10-30, 16-35, 20-37): the “Activity on potassium channels” value in the data set with panel of 20 ion channels is given as “active on a subset of potassium channels”. Also, the “Activity against / inhibition of hERG (Kv11.1)” value on hERG [1] is “showed additional activity”. At Kv1.3, the activity at 20 µM is below 50%. Further, on Nav1.7, the “Activity against Nav1.7 channels” value is given as “showed additional activity”. Also, the IC50 in data set [4], in data set [5], in data set [6] (setting [11]), in data set [6] (setting [12]), in [7] (setting [13]) and in [7] (setting [14]) was above 1000 nM throughout. Moreover, the IC50 in data set [8] (setting [15]), in data set [8] (setting [16]), in data set [9] (setting [17]), in data set [9] (setting [18]), in data set [10] (setting [19]) and in [10] (setting [20]) was above 1000 nM in each case.

As to `CC[C@H](C)[C@@H]1NC(=O)[C@H](CCC(=O)O)NC(=O)[C@H](CCCNC(=N)N)NC(=O)[C@H](CCCNC(=N)N)NC(=O)[C@@H]2CSSC[C@@H](C(=O)N[C@@H](Cc3ccc(O)cc3)C(=O)N[C@@H](CCCNC(=N)N)C(=O)N[C@@H](CC(N)=O)C(=O)O)NC(=O)[C@H](C(C)C)NC(=O)[C@@H]3CSSC[C@H](NC(=O)[C@H](CO)NC(=O)CNC(=O)CNC(=O)[C@H](CCC(N)=O)NC(=O)[C@@H](NC(=O)[C@H](CCCCN)NC(=O)[C@@H](NC(=O)[C@H](CC(N)=O)NC(=O)[C@@H](NC(=O)[C@H](CCC(N)=O)NC(=O)[C@@H](NC(=O)[C@H](CCC(N)=O)NC(=O)[C@H](CO)NC(=O)CN)C(C)C)[C@@H](C)O)C(C)C)CSSC[C@H](NC(=O)[C@H](CCCCN)NC(=O)CNC(=O)[C@H](C)NC(=O)[C@H](C)NC(=O)[C@H](C(C)C)NC(=O)CNC1=O)C(=O)N[C@@H]([C@@H](C)CC)C(=O)N[C@@H](CC(N)=O)C(=O)NCC(=O)N[C@@H](CCCCN)C(=O)N3)C(=O)N[C@@H](C)C(=O)N[C@@H](CO)C(=O)N[C@@H](C(C)C)C(=O)N2` [SEQ ID NO: 10] (H-GSQVQTNVKCQGGSCASVCRREIGVAAGKCINGKCVCYRN-OH; disulfide 10-30, 15-35, 19-37), the IC50 in data set [4], in data set [5], in data set [6] (setting [11]), in data set [6] (setting [12]), in data set [7] (setting [13]) and in data set [7] (setting [14]) was above 1000 nM throughout. In addition, the IC50 in data set [8] (setting [15]), in [8] (setting [16]), in data set [9] (setting [17]), in [9] (setting [18]), in data set [10] (setting [19]) and in data set [10] (setting [20]) was above 1000 nM in each case.
